# Measured values reported in patent US20250368638A1, “BICYCLIC INHIBITORS OF NICOTINAMIDE […], COMPOSITIONS AND USES THEREOF” (President and Fellows of Harvard College, priority 2021, published 2025).
# Tests used:
# hERG = hERG (Homo sapiens, UniProt Q12809); assay: hERG safety evaluation by manual Patch-Clamp system; assay type: cell-based
# Experimental: Cell lines and cell culture: hERG stably expressed HEK 293 cell line (Cat #K1236) was purchased from Invitrogen. The cells are cultured in 85% DMEM, 10% dialyzed FBS, 0.1 mM NEAA, 25 mM HEPES, 100 U/mL Penicillin-Streptomycin, 5 μg/mL Blasticidin and 400 μg/mL Geneticin. Cells are split using TrypLE™ Express about three times a week, and maintained between ˜40% to ˜80% confluence. Before the assay, the cells were onto the coverslips at 5×10^5 cells/per 6 cm cell culture dish and induced with doxycycline at 1 μg/mL for 48 hours.
# […]; 2) Intracellular solution (in mM): 140 KCl, 2 MgCl2, 10 EGTA, 10 HEPES and 5 MgATP (pH adjusted to 7.35 with KOH).
# Experimental procedure: 1) Remove the coverslip from the cell culture dish and place it on the microscope stage in bath chamber; 2) Locate a desirable cell using the ×10 objective. Locate the tip of the electrode under the microscope using the ×10 objective by focusing above the plane of the cells. […]
# Data analysis: Data that met the above criteria for hERG current quality were further analyzed as the following steps: 1) Percent hERG current inhibition was calculated using the following equation; 2) The dose response curve of test compounds was plotted with percentage of hERG current inhibition against the concentration of test compounds using Graphpad Prism 8.0, and fit to a sigmoid dose-response curve with a variable slope.
# [1] = Metabolic stability in pooled male mouse liver microsomes
# Experimental: A master solution was prepared according to the following table.
# 40 μL of 10 mM NADPH solution was added to each well. The final concentrations of NADPH was 1 mM. The mixture was pre-warmed at 37° C. for 5 minutes. The negative control samples were prepared by replacing NADPH solutions with 40 μL of ultra-pure H2O. The negative control was used to exclude the misleading factor that resulted from instability of chemical itself. Samples with NADPH were prepared in duplicate. Negative controls were prepared in singlet.
# The reaction was started with the addition of 4 μL of 200 μM control compound or test compound solutions. […] Samples were centrifuged at 3, 220 g for 40 minutes. Aliquot of 90 μL of the supernatant was mixed with 90 μL of ultra-pure H2O and then used for LC-MS/MS analysis.
# For metabolite standard samples: 1 μL of 400 μM working solution was added to 89 μL master solution following by adding 400 μL of cold acetonitrile with internal standard (IS) (100 nM alprazolam, 200 nM Imipramine, 200 nM labetalol and 2 μM ketoprofen). Then 10 μL of 10 mM NADPH solution or ultra-pure H2O was added to the mixture. Samples were centrifuged at 3,220 g for 40 minutes to precipitate protein. Aliquots of 90 μL supernatant diluted by 90 μL of water was used for LC-MS/MS analysis.
# [2] = male, mouse, pooled liver microsomes
# hERG, sequence (Q12809 whole entry): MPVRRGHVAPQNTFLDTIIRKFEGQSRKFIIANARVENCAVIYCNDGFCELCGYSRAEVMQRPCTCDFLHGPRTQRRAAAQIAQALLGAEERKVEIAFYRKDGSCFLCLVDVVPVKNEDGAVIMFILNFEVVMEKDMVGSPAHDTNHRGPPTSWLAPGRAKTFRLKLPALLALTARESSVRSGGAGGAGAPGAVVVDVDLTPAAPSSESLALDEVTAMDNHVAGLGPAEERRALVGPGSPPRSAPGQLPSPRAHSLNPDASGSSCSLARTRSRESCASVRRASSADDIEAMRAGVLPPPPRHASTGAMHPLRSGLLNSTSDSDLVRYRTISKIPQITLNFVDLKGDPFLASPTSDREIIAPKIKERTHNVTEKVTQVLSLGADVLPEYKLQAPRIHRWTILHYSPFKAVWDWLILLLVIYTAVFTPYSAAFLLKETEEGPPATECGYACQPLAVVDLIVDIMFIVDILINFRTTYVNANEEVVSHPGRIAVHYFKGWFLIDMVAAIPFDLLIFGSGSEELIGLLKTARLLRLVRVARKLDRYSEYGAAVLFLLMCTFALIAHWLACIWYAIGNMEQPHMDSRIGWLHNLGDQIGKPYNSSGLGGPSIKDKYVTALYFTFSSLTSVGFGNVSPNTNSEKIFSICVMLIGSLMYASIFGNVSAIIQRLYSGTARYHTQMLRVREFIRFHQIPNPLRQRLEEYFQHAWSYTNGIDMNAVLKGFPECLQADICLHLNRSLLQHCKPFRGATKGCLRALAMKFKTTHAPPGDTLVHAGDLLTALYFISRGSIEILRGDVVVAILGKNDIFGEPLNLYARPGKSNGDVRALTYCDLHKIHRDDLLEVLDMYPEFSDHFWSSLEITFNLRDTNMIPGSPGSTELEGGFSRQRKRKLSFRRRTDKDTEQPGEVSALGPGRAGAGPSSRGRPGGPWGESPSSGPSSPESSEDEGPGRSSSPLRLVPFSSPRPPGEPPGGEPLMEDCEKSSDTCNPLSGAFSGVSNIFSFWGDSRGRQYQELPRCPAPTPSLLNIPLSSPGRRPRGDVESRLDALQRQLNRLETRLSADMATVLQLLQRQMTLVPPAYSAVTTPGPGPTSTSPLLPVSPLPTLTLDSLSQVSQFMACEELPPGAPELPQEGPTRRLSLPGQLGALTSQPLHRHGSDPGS
smiles,measurement,setting,value
"C[C@@H]1Cc2cc(C(N)=O)cnc2N1 [Compound 11, (2R)-2-methyl-2,3-dihydro-1H-pyrrolo[2,3-b]pyridine-5-carboxamide]","inhibition at 5 min, 30 µM","hERG; human, HEK293 cells stably expressing hERG, pH 7.35, at 30 μM",15%
same,IC50,"hERG; manual Patch-Clamp, hERG stably expressed HEK 293 cell line",> 30 µM
same,Predicted hepatic CL,[1]; Mouse liver microsomes,<18.76 mL/min/kg
same,Remaining (%) at 60 minutes,[1]; Mouse liver microsomes,93.24%
same,CLint scaled at 2 μM,[1]; [2],< 23.7 mL/min/kg
same,half-life at 2 μM,[1]; [2],> 4.26 h
same,microsomal CLint at 2 μM,[1]; [2],< 5.42 µL/min/mg
